Assay results: patent publication US11135233B2, “Methods for preventing or mitigating acute allergic responses using human milk oligosaccharides” (Abbott Laboratories, priority 2013, dated 2021)

What was measured:
OVA-sensitized mice [1] = experiment: OVA-induced food allergy model: diarrhea score; type: in vivo; conditions: 200 ul of 5 mg/ml in PBS daily oral gavage day 27 to 49; versus untreated or lactose treated OVA-sensitized mice; FIG. 4A/4B
Description: (§1) The ability of HMOs to attenuate the gastrointestinal mast cell response was determined by measuring the amount of diarrhea, change in body temperature, and change in mouse mast cell protease-1 (mMCP-1) levels in HMO treated mice relative to untreated and lactose treated control mice.
(§2) The OVA-induced food allergy model was modified from Yamaki and Yoshino (Allergy. 2012; 67:1259-70). Mice were sensitized with 50 μg of OVA (Sigma, St. Louis, Mo.) and 2 mg of alum (Sigma, St. Louis, Mo.) in 200 μl of Phosphate Saline Buffer (PBS) on day 0 and 14. HMO (200 ul of 5 mg/ml in PBS) treatments (2′-FL or 6′-SL) were administrated daily via oral gavage from day 27 to day 49. Mice were orally challenged with 50 μg of OVA every 3 days (Days: 28, 31, 34, 37, 40, 43, 46 and 49). On challenge days treatments were given 1 hour prior to OVA challenge. On day 49, serum, spleen and intestinal samples, were obtained. Non-sensitized PBS challenged mice served as negative controls.
Diarrhea symptoms were scored by visually monitoring mice for 60 minutes after challenge as follows: 0, normal stools; 1, a few wet an unformed stools; 2, a number of wet an unformed stools with moderate perianal staining of the coat; 3, severe, watery stool with severe perianal staining of the coat.

[2] = system: skin mast cell response in sensitized mice; experiment: Passive cutaneous anaphylaxis (PCA), skin mast cell response, Evans blue dye in ear pinnae; type: in vivo; conditions: oral gavage 1 mg per mouse daily for 5 days; anti-DNP IgE i.d., DNP-HSA i.v.; FIG. 3
Description: The ability of HMOs to attenuate skin mast cell responses, as measured by the PCA response, was determined in sensitized mice fed 2′-FL, phosphate buffered saline (PBS), lactose, or 6′-SL by detecting the level of dye in ear pinnae indicative of the PCA response.
Mice were treated with 2′-FL, 6′-SL, lactose or PBS by oral gavage (1 mg per mouse) daily for 5 days. On day 4 mice were sensitized by intradermal (i.d.) injection of anti-DNP IgE (10 ng in […] saline) into the right ear pinnae while the left ear was injected with saline alone. Twenty-four hours later, DNP-HSA (10 mg/kg) together with Evans blue (100 mg/kg) was injected intravenously (i.v.). 1 hour following i.v. injection mice were euthanized and ear pinnae collected. Evans blue dye was extracted by incubating the skin samples in DMSO for 24 h at 37° C., and measuring the optical density (O.D.) at 650 nm. Data is presented as the difference in O.D. between the control (left) and sensitized (right) ear.

[3] = system: bone marrow mast cells (BMMC); experiment: In vitro mast cell degranulation (β-hexosaminidase release) in sensitized BMMC exposed to HMO; type: cell-based, Balb/c mice; conditions: anti-DNP IgE sensitized BMMC, HMO at a range of concentrations 30 min prior to DNP-HSA activation; FIG. 1A/1B
Description: The ability of HMOs to attenuate mast cell degranulation was tested by exposing sensitized bone marrow mast cells (BMMC) to either 2′-FL or 6′-SL.
BMMC from female Balb/c mice were obtained by culturing the bone marrow cells in enriched RPMI-1640 medium with 10% pokeweed mitogen-stimulated spleen as a source of mast cell growth factors for 3 weeks. The cells were kept at a concentration of 0.2×10^5 cells/ml in a 5% CO2, 37° C. environment, where the medium was changed weekly. BMMC were used for experiments after 3-4 weeks of culture (>95% mast cells). BMMC were sensitized with 1 ug/ml monoclonal anti-dinitrophenyl (DNP) IgE clone and seeded into 96-well plates at a final concentration of 1×10^6 cells/ml. […] Cell supernatants were harvested 30 min after DNP-HSA stimulation and stored at −20° C. until analyzed. […] Results are expressed as a percentage of total β-hexosaminidase. […]
This assay was conducted to assess in-vitro antigen-induced degranulation of mast cells. […] The release of β-hexosaminidase from mast cells was measured from the supernatant. […] The reaction was stopped with 100 μl citrate buffer pH 4.5 and read by using CytoFluor 2350 fluorescent spectrophotometer at 450 nm (excitation 356 nm). B-hexosaminidase release was presented as a percentage of the total B-hexosaminidase release determined by cell lysis with 1×triton-X.

[4] = system: mouse mast cell protease-1 (mMCP-1); experiment: OVA-induced food allergy model: serum mMCP-1 concentration; type: in vivo, mice; conditions: 200 ul of 5 mg/ml in PBS daily oral gavage; day 49; versus untreated and lactose treated OVA-sensitized controls; FIG. 6
Description: as §1, §2
Following body temperature measurements, mice were euthanized and serum mMCP-1 concentration was determined.

OVA-sensitized mice [5] = experiment: OVA-induced food allergy model: rectal temperature after final antigen challenge; type: in vivo; conditions: 200 ul of 5 mg/ml in PBS daily oral gavage; 1 hour following final OVA challenge; versus untreated or lactose treated; FIG. 5A/5B
Description: as §1, §2
Rectal temperature was monitored for 1 hour following the final antigen challenge.

Row | SMILES | stool (diarrhea) score (OVA-sensitized mice [1]) | difference in Evans blue dye (O.D. at 650 nm) between control (left) and sensitized (right) ear [2] | β-hexosaminidase (β-Hex) activity relative to controls (percentage of total β-hexosaminidase) [3] | serum mMCP-1 levels [4] | decline in rectal temperature (OVA-sensitized mice [5])
1 | CC(=O)N[C@H]1[C@H]([C@H](O)[C@H](O)CO)O[C@@](OC[C@H]2O[C@@H](O[C@H]3[C@H](O)[C@@H](O)[C@H](O)O[C@@H]3CO)[C@H](O)[C@@H](O)[C@H]2O)(C(=O)O)C[C@@H]1O [6′-SL, 6′-sialyllactose] | but not 6′-SL, Significantly Decreases Diarrhea Symptoms | greater difference in dye detected between right and left ears in PBS and lactose-treated mice than in mice treated with 2′-FL or 6′-SL | significant decrease | but not 6′-SL, produced a significant decrease | but not 6′-SL, Mitigates the Decline in Rectal Temperature
2 | OC[C@H]1O[C@@H](O[C@H]2[C@H](O)[C@@H](O)C(O)O[C@@H]2CO)[C@H](O)[C@@H](O)[C@H]1O (stereo partly drawn) [lactose, reference compound] |  | greater difference in dye detected |  |  | 
